The subject of data set [1] is HDV. Briefly: HDV replication in HDV monoinfected dHepaRG cells (total HDV RNA, RT-qPCR). The class given is cell-based, Hepatitis D virus. As to conditions: day 4 to 11 post-infection. The method, then:
FIG. 6. FXRα agonists inhibit HDV replication in monoinfected dHepaRG cells.
Total RNA was prepared using NucleoSpin RNA Plus (Macherey-Nagel). After DNA digestion with TURBO DNase (Ambion), maximum 1000 ng RNA were reverse-transcribed using High-Capacity RNA-to-cDNA kit (Thermo Fisher Scientific). […] . All assays were performed in triplicate.
Background: Real-time PCR tracks product formation cycle by cycle.

Data set [2] concerns HDV genomic RNA. Description: HDV genomic RNA in HDV monoinfected dHepaRG cells (Northern Blot). The note with it: day 4 to 11 post-infection.
Experimental: Differentiated HepaRG cells were infected with HDV at a MOI of 25 GE/cell. From day 4 to day 11 post-infection, cells were treated with 1 or 10 μM of GW4064, 10 μM of 6-ECDCA and 1 μM of tropifexor. At day 11 post HDV infection, cells were collected and HDV genomic RNA was analyzed by Northern Blot.
To determine if FXRα-mediated inhibition of HDV was independent of HBV, the inventors analyzed the impact of FXRα agonists in HDV mono-infected dHepaRG cells.
Total RNA was extracted from infected cells using Tri Reagent® (TR118, Molecular Research Center). […] After electrotransfer to charged nylon membranes (Roche), genomic HDV RNA sequences were detected by using a strand-specific RNA probe synthesized using the Dig RNA Labeling kit (Sp6/T7) (Roche) and DIG luminescent detection kit (Roche) accordinng to the manufacturer's instruction. Quantification of signals were done with ImageLab.
As an internal control for the amount and quality of the extracted RNA, the membrane was stripped and rehybridized by using labeled oligonucleotides specific for human 18S rRNA and 28S rRNA.
Data set [3] concerns HDV antigens (HDAg-L, HDAg-S). As to conditions: superinfected dHepaRG, Western Blot densitometry normalized to B-tubulin.
Experimental: Differentiated HepaRG cells were infected with HBV at a MOI of 100 GE/cell and 7 days later with HDV at a MOI of 10 GE/cell. […] Cells were harvested at day 17 post HBV infection and lysed for protein extraction and WB analyses. Graphs represent the densitometry analyses of the respective blots and results are presented as ratios of HDAgs normalized to the levels of B-tubulin.
(§1) Cells were harvested in RIPA lysis buffer (NaCl 150 mM, Tris HCl pH=8.0 50 mM, SDS 0.1%, NP40 1%, Na Deoxycholate 0.5%) containing protease inhibitors (Protein Cocktail Inhibitors from Sigma-Aldrich, NaF 10 mM, Na Orthovanadate 10 mM). Clarified lysates were subjected to 10% SDS-PAGE and Western Blot transfer onto PVDF or nitrocellulose membranes using the TransTurbo Blot apparatus according to the manufacturer (Biorad). Primary antibodies are the HDVAg antibody (kind gift of Dr Alain Kay) and the beta-tubulin antibody (Abcam). Secondary HRP antibodies were purchased from Sigma-Aldrich. HRP signal detection was determined electronically using Ozyme—Syngene PXi Image system and parameters set strictly below the saturation point.
Data set [4] deals with HDV. Briefly: HDV replication in HBV/HDV coinfected dHepaRG cells (intracellular HDV RNA, RT-qPCR). The note with it: 10 μM, treated day 3 to 13 post-infection. In kind it is cell-based, Hepatitis D virus. The method, then: The HepaRG cell line derived from a human cellular hepato carcinoma can differentiate and regain many phenotypic traits of hepatocytes after 4 weeks of culture under defined conditions^1. HepaRG cells were cultured, differentiated, and infected by HBV and HDV as previously described^2,3.
Total RNA was prepared using NucleoSpin RNA Plus (Macherey-Nagel). After DNA digestion with TURBO DNase (Ambion), maximum 1000 ng RNA were reverse-transcribed using High-Capacity RNA-to-cDNA kit (Thermo Fisher Scientific). […] All assays were performed in triplicate.

Data set [5] concerns HDV. Description: HDV replication in HBV-infected PHH super-infected with HDV (intracellular HDV RNA, RT-qPCR). The class given is cell-based, Hepatitis D virus. As to conditions: 7 days treatment, superinfected PHH.
Data set [6] relates to HDV particles. Description: Specific infectivity of secreted HDV particles on naïve Huh7.5-NTCP cells. As to conditions: 6 days post infection.
Experimental: (A) Supernatants of infected dHepaRG cells were collected, concentrated by PEG precipitation and the levels of extracellular HDV RNAs were assessed by qRT-PCR analyses. (B-C) Naïve HuH7.5-^NTCP cells were infected with the different concentrated supernatants with (B) 500 vge/cell or (C) as indicated. Six days later, levels of intracellular HDV RNAs were assessed by RT-qPCR analyses. Results of RT-qPCR are the mean+/−SD of three independent experiments each performed with three biological replicates.
Finally, naïve Huh7.5-^NTCP cells were infected with the same concentrated supernatants but using two different HDV inoculum, 100 and 500 vge/cell, for each condition.
(§2) For analysis of HDV virion specific infectivity, supernatants from dHepaRG infected with both HBV and HDV were concentrated using 8% PEG 8000. HDV RNA was quantified by RT-qPCR in concentrates and Huh7.5^NTCP cells were infected using same viral genome equivalents (vge) of concentrated virus for each condition of treatment. Six days post infection, total cellular RNA was extracted and HDV RNA was quantified by RT-qPCR.
Data set [7] concerns HBV. Description: Anti-HBV activity in HBV/HDV coinfected dHepaRG cells (intracellular HBV RNAs, secreted HBs and HBe antigens). The class given is cell-based, Hepatitis B virus. As to conditions: 10 μM, day 13. The text has this: FIG. 1. FXRα agonist inhibits HDV replication in HBV-HDV coinfected dHepaRG cells. […] Cells and supernatants were harvested at day 13 for intracellular HBV and HDV RNA and secreted antigens quantification. Results are the mean+/−SD of two experiments performed with three biological replicates.
The inventors first evaluated the impact of FXRα agonists on HDV replication in in vitro coinfected dHepaRG cells. Cells were simultaneously infected with HBV and HDV. […] At day 13 post-infection, cells and supernatants were collected. The intracellular amounts of HDV and HBV RNAs were quantified as well as secreted HBe and HBs antigens.
HBV stocks (genotype D, Genbank ID U95551) were prepared using the HepAD38 cell line according to previously described protocols^7.
HBs and HBe antigens secreted in cells supernatant were quantified, after required dilutions, on Mini Vidas apparatus with Vidas HBs and Vidas HBE/HBET kits (bioMerieux, France) or Autobio kits (AutoBio, China) according to manufacturer's protocol.
Total RNA was prepared using NucleoSpin RNA Plus (Macherey-Nagel). After DNA digestion with TURBO DNase (Ambion), maximum 1000 ng RNA were reverse-transcribed using High-Capacity RNA-to-cDNA kit (Thermo Fisher Scientific). Quantitative PCR was carried out with primers HDV-F (5′-[…] -3′, SEQ ID NO: 1) and HDV-R (5′-[…] -3′, SEQ ID NO: 2) for quantification of total HDV RNA and HBV-F (5′-[…] -3′, SEQ ID NO: 3) and HBV-R (5′-[…] -3′, SEQ ID NO: 4) for quantification of pregenomic/precore HBV RNA. cDNA was analysed by quantitative PCR (qPCR) using QuantiFast SYBR® Green PCR kit (Qiagen) on LightCycler® 480 instrument (Roche) using a 45 PCR cycles. All assays were performed in triplicate. Relative quantification was determined by normalizing the expression of each gene to S9 housekeeping gene using primers S9-F (5′-[…] -3′, SEQ ID NO: 5) and S9-R (5′-[…] -3′, SEQ ID NO: 6).

The subject of data set [8] is HDV antigens (HDAg-L, HDAg-S). As to conditions: superinfected PHH, Western Blot densitometry normalized to B-tubulin.
Experimental: PHH were infected with HBV at a MOI of 100 GE/cell and 4 days later with HDV at a MOI of 10 GE/cell. […] Cells and supernatants were harvested at day 14 post HBV infection for intracellular HDV RNA quantification and lysed for protein extraction and WB analyses. Graphs represent the densitometry analyses of the respective blots and results are presented as ratios of HDAgs normalized to the levels of B-tubulin.
as §1
The subject of data set [9] is nascent HDV RNAs. Description: Run-On assay of nascent HDV RNAs in HBV/HDV co-infected dHepaRG. As to conditions: 10 μM for 4 days, 2 h labelled uridin, coinfected dHepaRG. The class given is cell-based, Hepatitis D virus. The method, then:
FIG. 8. Decrease of the levels of nascent HDV RNAs in HBV/HDV co-infected dHepaRG treated with FXRα agonists. dHepaRG were co-infected with HBV (100 vge/cell) and with HDV (10 vge/cell). […] Cells were incubated with labelled uridin or not (mock-EU) for 2 h, washed and harvested. Total intracellular HDV RNAs as well as EU-labelled HDV RNAs (nascent intracellular HDV RNAs) were isolated and quantified by RT-qPCR analyses. As a control, cells were treated with actinomycin D (10 μg/mL, ActD) 20 min before incubation with labelled uridin in order to block transcription of nascent RNAs. Results are the mean+/−SD one experiment performed with three biological replicates.
Six days post-infection, cells were treated with 10 μM of GW4064 for 4 days before Run-On experiment.
HDV-infected HepaRG cells were incubated with labelled uridin or not (mock-EU) for 2 h, washed and harvested. Total intracellular HDV RNAs as well as EU-labelled HDV RNAs (nascent intracellular HDV RNAs) were isolated using the Click-iT™ Nascent RNA Capture Kit (Thermofisher Scientific) according to the manufacturer's instruction. As a control, cells were treated with 10 μg/mL of actinomycin D 20 min before incubation with labelled uridin in order to block transcription of nascent RNAs.

The test system of data set [10] is HDV. Description: Secretion of HDV RNA from HBV/HDV coinfected dHepaRG cells (RT-qPCR of concentrated supernatants). As to conditions: 10 μM for 10 days.
Experimental: (A) Supernatants of infected dHepaRG cells were collected, concentrated by PEG precipitation and the levels of extracellular HDV RNAs were assessed by qRT-PCR analyses. […] Results of RT-qPCR are the mean+/−SD of three independent experiments each performed with three biological replicates.
as §2
The subject of data set [11] is HDV. Briefly: HDV replication in HBV-infected dHepaRG super-infected with HDV (intracellular HDV RNA, RT-qPCR). The class given is cell-based, Hepatitis D virus. As to conditions: 7 days treatment, superinfected dHepaRG.
The conditions of data set [12]: in vivo; cited from earlier work.

Like-named read-outs stand apart in the source and are kept apart here.

In the case of `O=C(O)c1cc(F)c2nc(N3[C@@H]4CC[C@H]3C[C@@H](OCc3c(-c5ccccc5OC(F)(F)F)noc3C3CC3)C4)sc2c1` [tropifexor, 2-[(1R,3r,5S)-3-({5-cyclopropyl-3-[2-(trifluoromethoxy)phenyl]-1,2-oxazol-4-yl}methoxy)-8-azabicyclo[3.2.1]octan-8-yl]-4-fluoro-1,3-benzothiazole-6-carboxylic acid], the “decrease of total HDV RNA” value in data set [1] (1 μM) is “around 60%”. Further, in [2] (1 μM), the “amount of genomic HDV RNA” value is “decreased”.
With `CC[C@H]1[C@@H](O)[C@@H]2[C@H](CC[C@]3(C)[C@@H]([C@H](C)CCC(=O)O)CC[C@@H]23)[C@@]2(C)CC[C@@H](O)C[C@@H]12` [6-ECDCA, 6-ethyl-cheno-deoxycholic acide], in data set [1] (10 μM), the “decrease of total HDV RNA” value is reported as “around 60%”. In data set [2] (10 μM), the “amount of genomic HDV RNA” value was “decreased”.
As to `CC(C)c1onc(-c2c(Cl)cccc2Cl)c1COc1ccc(/C=C/c2cccc(C(=O)O)c2)c(Cl)c1` [GW4064, 3-[2-[2-Chloro-4-[[3-(2,6-dichloro-phenyl)-5-(1-methylethyl)-4-isoxazolyl]methoxy]phenyl]ethenyl] benzoic acid], the “reduction of HDAg-L (large HDV antigen) amount” value in data set [3] and in data set [8] was 75% throughout. Also, the “reduction of HDAg-S (small HDV antigen) amount” value in data set [3] and in [8] was 75% in each case. Besides, the “decrease of total intracellular HDV RNA” value is given as 60% in data set [4]; “very pronounced” in [5] (1 μM); at most 45% in data set [5] (10 μM); “very pronounced” in [11] (1 μM); “up to 60%” in data set [11] (10 μM). The “intracellular HDV RNA levels with inoculum 100 versus 500 vge/cell” value in [6] (Huh7.5-NTCP infected with supernatants of treated dHepaRG) is listed as “no significant difference”. Moreover, the “decrease of intracellular HDV RNA in cells infected with supernatants of treated dHepaRG” value in data set [6] (producer cells treated 10 μM, Huh7.5-NTCP infected with 500 vge/cell) is “more than 95%”. In addition, in [7], the “anti-HBV activity on amount of intracellular HBV RNAs” value was “verified”. For the same molecule, the “anti-HBV activity on secreted HBe antigen” value in [7] is on record as “verified”. In data set [7], the “anti-HBV activity on secreted HBs antigen” value is “verified”. Also, the “decrease of total HDV RNA” value in data set [1] (10 μM) is “around 60%”. Also, in data set [9], the “synthesis of nascent HDV RNA” value is “able to inhibit”. The “decrease of secreted HDV RNA” value in data set [10] was found to be 65%. Besides, the “amount of genomic HDV RNA” value in [2] (10 μM) is “decreased”. Also, in data set [12], the bioavailability entry is “limited”.

These data come from patent publication US20230060715A1, “USE OF FXR AGONISTS FOR TREATING AN INFECTION BY HEPATITIS D VIRUS” (INSERM (INSTITUT NATIONAL DE LA SANTÉ ET DE LA RECHERCHE …, priority 2020, published 2023).
